The record followed here is paper PMC12473014, “Granzyme B PET Imaging Enables Early Assessment of Immunotherapy Response in a Humanized Melanoma Mouse Model” (Pharmaceuticals, 2025).

The term Ki denotes a dissociation constant, usually derived from enzyme kinetics or from competition with a known ligand. In general, tissue uptake refers to the percentage of the injected dose found per gram of tissue.

For data set [1], the target named is T1, active human GZB (Homo sapiens, UniProt P10144). The data set can be described thus: Fluorometric human GZB enzymatic inhibition assay (ab157403). Also on record: Each dilution was combined with 0.1 µg/µL of active GZB protein (ab285779); purchased ab285779. The class given is biochemical. The following applies: 0.1 µg/µL active GZB, 5000 to 0.00002048 nM, 50 µL, duplicate, kinetic mode after 90 min at 27 °C, CI: 2.95–5.98, read-out: inhibition constant (Ki). On the procedure:
(§1) NOTA-CYT-200 was synthesized (CytoSite Biopharma, Sudbury, MA, USA) with a high chemical purity (>95%) and characterized using mass spectrometry. We performed a fluorometric human GZB activity assay (ab157403) to determine the inhibitor constant (Ki) of NOTA-CYT-200 for active human GZB enzyme activity in vitro. NOTA-CYT-200 was serially diluted with GZB assay buffer, starting from 5000 to 0.00002048 nanomolar. Each dilution was combined with 0.1 µg/µL of active GZB protein (ab285779) and the provided fluorophore. Each well contained a total volume of 50 µL, and all the samples were tested in duplicate using a microplate reader in kinetic mode (BioTek Cytation5, Winooski, VT, USA) after 90 min of incubation at 27 °C. The in vivo specificity of NOTA-CYT-200 labeled with 68gallium (^68Ga-NOTA-CYT-200) for the active human GZB protein was evaluated in non-tumor-bearing naive NSG mice (n = 8) following a subcutaneous injection of 80 µL of Matrigel alone (Corning™ Matrigel™ Membrane Matrix) or 65 µL of Matrigel containing 15 µL of active human GZB protein (0.05 µg/µL, totaling 0.75 µg GZB) into each animal’s shoulder. […] The uptake of ^68Ga-NOTA-CYT-200, measured as standard uptake values (SUVs) within the implanted regions, was assessed using the VivoQuant™ software, version 4.0 (InVicro, Needham, MA, USA). […]

The target in data set [2] is T1, active human GZB. The data set is classed as in vivo. The conditions noted are these: for mean TBR: mean ± SEM. On the procedure:
(§2) Human melanoma G361 (ATCC®) cells were cultured in McCoy’s Medium (Thermo-Fisher, Waltham, MA, USA) supplemented with 10% fetal bovine serum (Thermo-Fisher) and 1% penicillin–streptomycin (Thermo-Fisher) at 37 °C with 5% CO2. The mice were then subcutaneously (s.c.) implanted with 2 × 10^6 G361 cells suspended in Matrigel and 100 µL of phosphate-buffered saline (Sigma-Aldrich, St. […] To estimate the tumor volume, both the longest and shortest perpendicular diameters were measured. These measurements were then combined using a standard method commonly employed in preclinical studies to approximate the tumor volume, providing a reliable estimate of the three-dimensional tumor size. Four days after tumor implantation, the tumors measured 336 ± 38 mm^3. The mice were then randomly assigned to receive three doses at three-day intervals of either 200 µg/100 µg of an anti-PD1/CTLA4 combination therapy (combination group, n = 15), 200 µg of anti-PD1 as a monotherapy (monotherapy group, n = 15), or a vehicle solution (controls, n = 12) via an intraperitoneal (i.p.) injection. A subset of mice (combination: n = 8, monotherapy: n = 9, controls: n = 6) underwent PET/CT imaging before treatment (baseline), as well as 4 days (timepoint 2), 1 week (timepoint 3), and 2 weeks (timepoint 4) after the treatment began (Figure 7). ^68Gallium was obtained by eluting a ^68Ga/^68Ge generator (Eckert and Ziegler, Berlin, Germany) with 0.1 molar HCl. A total of 2 mL of eluted ^68gallium was mixed with 100 µL of NOTA-CYT-200, stored in a stock solution of 1 mg/mL of metal-free water (OmniTrace Ultra, Millipore, Burlington, MA, USA) and two molar HEPES buffer to adjust the pH to 3.5–4.0. The reaction was incubated at 95 °C for 10 min. The mixture was then adjusted to a pH of 7.0 using sodium hydroxide (NaOH) before being administered intravenously via the tail vein. A total of 3.96 MBq ± 0.81 of ^68Ga-NOTA-CYT-200 was injected 60 ± 5 min prior to PET/CT acquisition. The PET/CT images were acquired in static mode using a small animal Argus PET/CT scanner (Sedecal, Madrid, Spain) in two bed positions over 20 min. The PET images were reconstructed using (2 iterations and 16 subsets) 2D-OSEM and corrected for randoms and scatter. Post-acquisition, the PET/CT images were analyzed by two blinded investigators using the VivoQuant™ software, version 4.0 (InVicro). Standard uptake values (SUVs) for the tumor, liver, and colon were normalized to the blood pool activity measured by drawing a region of interest around the left ventricle of the heart, yielding target-to-background ratios (TBR for tumor, LBR for liver, and CBR for colon). This normalization accounts for the nonspecific background signal and enables a comparison of the uptake across the groups and imaging timepoints. Prism (version 9.2; GraphPad) was used to perform quantitative data analyses. The data are presented as the mean ± SEM. The means of the two groups were compared using unpaired Student’s t-tests when appropriate.

In data set [3] the target is T1, active human GZB. Put plainly: PET/CT liver uptake (LBR) in humanized NSG mice with G361 melanoma. The conditions noted are these: for liver-to-blood ratio (LBR): n = 8, mean ± SEM. The class given is in vivo. The protocol: as §2
The next data set in a line: in vivo. Also on record: species or system NSG mice. The conditions noted are these: mouse; for tissue uptake at 1 h: NSG, iv, total radioactivity. On the procedure: The ^68Ga-NOTA-CYT-200 biodistribution was evaluated for each treatment group four days after the initial dose. Major organs, such as the tumor, heart, lungs, liver, spleen, stomach, pancreas, intestines, kidneys, muscles, bones, skin, and brain from each mouse, were excised exactly one hour after the i.v. administration of 52.83 µCi ± 0.87 (controls, n = 3), 41.83 µCi ± 5.93 (mono, n = 4), or 34.65 µCi ± 3.82 (combination, n = 4) ^68Ga-NOTA-CYT-200. Each organ was weighed individually before measuring the activity with an automatic gamma counter (PerkinElmer Wallac Wizard 2480, Waltham, MA, USA).

For another data set, the system named is active human GZB protein. Put plainly: PET uptake in subcutaneous Matrigel implants with or without active GZB (in vivo specificity). The conditions noted are these: n = 8, SUV normalized to blood pool, 1 h after i.v. 4.39 MBq, mean ± SEM. On the procedure:
as §1

The target in data set [4] is T1, active human GZB. The data set can be described thus: PET/CT intestinal/colon uptake (CBR) in humanized NSG mice with G361 melanoma. The data set is classed as in vivo. The following applies: mean ± SEM. The protocol:
as §2

Where two headings read alike, the source gives them in different places.

T1 sequence (P10144 21-247): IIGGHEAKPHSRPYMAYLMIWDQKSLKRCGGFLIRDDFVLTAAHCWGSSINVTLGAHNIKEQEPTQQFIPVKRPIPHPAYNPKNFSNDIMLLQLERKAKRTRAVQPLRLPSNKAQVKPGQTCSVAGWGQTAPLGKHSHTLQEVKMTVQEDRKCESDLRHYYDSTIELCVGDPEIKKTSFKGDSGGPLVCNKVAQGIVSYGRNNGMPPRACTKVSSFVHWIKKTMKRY

For `CC[C@H](C)[C@H](NC(=O)CNC(=O)CNC(=O)[C@H](CCC(=O)O)NC(=O)Cc1ccc(CC2CN(CC(=O)O)CCN(CC(=O)O)CCN2CC(=O)O)cc1)C(=O)N[C@H]1CCc2cccc3c2N(C1=O)[C@H](C(=O)N[C@H]1CC(=O)OC1O)C3` (stereo partly shown) [NOTA-CYT-200], the Ki at active human GZB [1] is 4.2 nM.

Take `CC[C@H](C)[C@H](NC(=O)CNC(=O)CNC(=O)[C@H](CCC(=O)O)NC(=O)Cc1ccc(CC2CN(CC(=O)O)CCN(CC(=O)O)CCN2CC(=O)O)cc1)C(=O)N[C@H]1CCc2cccc3c2N(C1=O)[C@H](C(=O)N[C@H]1CC(=O)OC1O)C3` (stereo partly shown) [^68Ga-NOTA-CYT-200, metal not drawn]: the “mean TBR” value at active human GZB [2] (baseline, combination (anti-PD1/CTLA4), n = 8) is 1.47 ± 0.2; at active human GZB [2] (baseline, monotherapy (anti-PD1), n = 9) it was 1.25 ± 0.17; on active human GZB [2] (day 4 after treatment start, combination (anti-PD1/CTLA4), n = 8, p < 0.0001 vs controls, p = 0.027 vs monotherapy), 3.88 ± 0.47; at active human GZB [2] (day 4 after treatment start, controls (vehicle), n = 6), 1.15 ± 0.13; on active human GZB [2] (day 4 after treatment start, monotherapy (anti-PD1), n = 9, p = 0.0005 vs controls), 2.84 ± 0.3; at active human GZB [2] (day 7, combination (anti-PD1/CTLA4), n = 8, p = 0.0052 vs monotherapy, p = 0.0003 vs controls), 3.5 ± 0.48. Also, the “mean TBR” value worked out at 1.69 ± 0.2 on active human GZB [2] (day 7, controls (vehicle), n = 6); 2.14 ± 0.11 at active human GZB [2] (day 7, monotherapy (anti-PD1), n = 9, p = 0.59 vs controls); 3.05 ± 0.43 on active human GZB [2] (day 14, combination (anti-PD1/CTLA4), n = 8, p = 0.01 vs monotherapy, p = 0.05 vs controls); 1.97 ± 0.28 on active human GZB [2] (day 14, controls (vehicle), n = 6); 1.75 ± 0.15 at active human GZB [2] (day 14, monotherapy (anti-PD1), n = 9, p = 0.88 vs controls). Moreover, the “off-target binding in tumors of the control group” value at active human GZB [2] (control group (vehicle)) is listed as “some off-target binding”. Further, the “highest TBR on day 4 or day 7” value came to 1.75 ± 0.39 on active human GZB [2] (controls, n = 6); 2.73 ± 0.88 at active human GZB [2] (treatment non-responders (TNRs), n = 6, p = 0.175 vs controls); 4.28 ± 1.20 at active human GZB [2] (treatment responders (TRs), n = 3, p = 0.0002 vs controls, p = 0.0109 vs TNRs). In addition, the “TBR, responder analysis” value at active human GZB [2] (day 4, treatment non-responders (TNRs), n = 6, p = 0.02 vs controls) was found to be 2.7 ± 0.9; on active human GZB [2] (day 4, treatment responders (TRs), n = 3, p < 0.0001 vs controls), 4.0 ± 1.2. Also, the “inhibition of the inflammatory response to immunotherapy by tracer injection” value at active human GZB [2] (in vivo) is on record as “did not observe any obvious inhibition of the inflammatory response to immunotherapy”. Also, the “liver-to-blood ratio (LBR)” value at active human GZB [3] (baseline, combination) was 2.98 ± 0.34; at active human GZB [3] (day 4, combination, p < 0.0001 vs baseline) it was 6.93 ± 1.04; on active human GZB [3] (day 7, combination, p < 0.0001 vs baseline), 7.16 ± 1.03; on active human GZB [3] (day 14, combination, p = 0.91 vs baseline, p = 0.0004 and 0.0001 vs days 4 and 7), 3.52 ± 0.27. Also, the “LBR change versus baseline” value is given as “significant LBR increase on day 4 versus baseline” at active human GZB [3] (day 4, monotherapy, n = 9, p = 0.023); “remained comparable to baseline” at active human GZB [3] (days 7 and 14, monotherapy, n = 9, p = 0.93 and p = 0.71); “none of the post-treatment LBR values were significantly different from baseline” at active human GZB [3] (post-treatment timepoints, controls, n = 6, p 0.43 to 0.71). For the same molecule, the tissue uptake at 1 h in the data set “in vivo” (41.83 uCi, kidney uptake) was found to be 1.47 ± 0.37 %ID/g; in “in vivo” (41.83 uCi, tumor uptake), 0.25 ± 0.06 %ID/g; in “in vivo” (52.83 uCi, intestinal uptake), 0.17 ± 0.13 %ID/g; in “in vivo” (52.83 uCi, kidney uptake), 1.32 ± 0.84 %ID/g; in the data set “in vivo” (52.83 uCi, tumor uptake), 0.12 ± 0.03 %ID/g. Also, in the data set “in vivo”, the “main organ of tracer elimination” value is reported as “kidney as the main organ responsible for tracer elimination”. The “radiotracer uptake in implant” value in the data set with active human GZB protein (Matrigel containing active GZB protein (0.75 µg), p = 0.0045 vs Matrigel without protein) is 6.18 ± 2.92; in the data set with active human GZB protein (Matrigel without the protein) it was 2.48 ± 1.01. Also, the “intestinal/colon-to-blood ratio (CBR)” value at active human GZB [4] (baseline, combination, n = 8) is reported as 3.5 ± 0.62; at active human GZB [4] (baseline, controls, n = 6), 2.11 ± 0.56; on active human GZB [4] (baseline, monotherapy, n = 9), 2.68 ± 0.43; on active human GZB [4] (day 4, combination, n = 8, p = 0.029 vs baseline), 6.81 ± 1.21; on active human GZB [4] (day 4, monotherapy, n = 9, p = 0.07 vs baseline), 5.41 ± 0.98; at active human GZB [4] (day 7, combination, n = 8, p = 0.96 vs baseline), 6.21 ± 1.23. Besides, the “intestinal/colon-to-blood ratio (CBR)” value was 3.75 ± 0.57 at active human GZB [4] (day 7, monotherapy, n = 9, p = 0.8 vs baseline); 4.09 ± 0.97 on active human GZB [4] (day 14, combination, n = 8, p = 0.99 vs baseline); 2.25 ± 0.36 at active human GZB [4] (day 14, monotherapy, n = 9, p = 0.99 vs baseline).
